Measured values from ChEMBL document CHEMBL1201861, “Genomics of Drug Sensitity in Cancer screening data, Wellcome Trust Sanger Institute”.

How the values were obtained:
HuTu80 = test: cells; assay type: functional, cell-based, Homo sapiens, HUTU-80; details: Homo sapiens, HuTu80;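 further: growth inhibition of HuTu80 human cells, determined with a cell viability readout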
Description: SANGER: Inhibition of human HUTU-80 cell growth in a cell viability assay.

LK-2 = test: cells; assay type: functional, cell-based; details: Homo sapiens;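 further: growth inhibition of LK-2 cells, read out with a viability assay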
Description: SANGER: Inhibition of human LK-2 cell growth in a cell viability assay.

CAL-51 = test: cells; assay type: functional, cell-based; details: Homo sapiens;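 further: human CAL-51 cell line, growth inhibition read out via a cell viability assay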
Description: SANGER: Inhibition of human CAL-51 cell growth in a cell viability assay.

OVCAR-5 = test: cells; assay type: functional, cell-based; details: Homo sapiens;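 further: growth inhibition of human OVCAR-5 cells, read out with a cell viability assay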
Description: SANGER: Inhibition of human OVCAR-5 cell growth in a cell viability assay.

PANC-08-13 = test: cells; assay type: functional, cell-based; details: Homo sapiens
Description: SANGER: Inhibition of human PANC-08-13 cell growth in a cell viability assay.

DU-145 = test: cells; assay type: functional, cell-based; details: Homo sapiens
Description: SANGER: Inhibition of human DU-145 cell growth in a cell viability assay.

VMRC-RCZ = test: cells; assay type: functional, cell-based; details: Homo sapiens
Description: SANGER: Inhibition of human VMRC-RCZ cell growth in a cell viability assay.

KYSE-520 cell line = test: cells; assay type: functional, cell-based; details: Homo sapiens;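 further: growth inhibition of human KYSE-520 cells, read out with a viability assay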
Description: SANGER: Inhibition of human KYSE-520 cell growth in a cell viability assay.

RCM-1 = test: cells; assay type: functional, cell-based; details: Homo sapiens;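 further: growth inhibition of the RCM-1 line, determined with a cell viability readout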
Description: SANGER: Inhibition of human RCM-1 cell growth in a cell viability assay.

OE33 = test: cells; assay type: functional, cell-based; details: Homo sapiens;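 further: growth inhibition of human OE33 cells, measured by a cell viability assay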
Description: SANGER: Inhibition of human OE33 cell growth in a cell viability assay.

MKN-28 = test: cells; assay type: functional, cell-based; details: Homo sapiens;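 further: cell viability assay read-out, IC50 reflects suppression of growth of human MKN-28 cells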
Description: SANGER: Inhibition of human MKN28 cell growth in a cell viability assay.

IST-SL2 = test: cells; assay type: functional, cell-based, Homo sapiens; details: Homo sapiens, IST-SL2;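 further: growth inhibition of human IST-SL2 cells, read out by a cell viability assay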
Description: SANGER: Inhibition of human IST-SL2 cell growth in a cell viability assay.

C32 = test: cells; assay type: functional, cell-based; details: Homo sapiens;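 further: cell viability assay, with IC50 reflecting inhibition of C32 cell growth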
Description: SANGER: Inhibition of human C32 cell growth in a cell viability assay.

CPC-N = test: cells; assay type: functional, cell-based, Homo sapiens; details: Homo sapiens, CPC-N;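 further: growth inhibition of CPC-N cells, with a cell viability assay as the readout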
Description: SANGER: Inhibition of human CPC-N cell growth in a cell viability assay.

CAL-72 = test: cells; assay type: functional, cell-based; details: Homo sapiens;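 further: cell viability assay measuring inhibition of proliferation in the CAL-72 cell line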
Description: SANGER: Inhibition of human CAL-72 cell growth in a cell viability assay.

L-540 = test: cells; assay type: functional, cell-based, Homo sapiens; details: Homo sapiens, L-540;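 further: growth inhibition of the human L-540 cell line, read out with a viability assay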
Description: SANGER: Inhibition of human L-540 cell growth in a cell viability assay.

CAL-54 = test: cells; assay type: functional, cell-based; details: Homo sapiens;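 further: growth inhibition of CAL-54 cells, read out by a viability measurement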
Description: SANGER: Inhibition of human CAL-54 cell growth in a cell viability assay.

NCI-H650 = test: cells; assay type: functional, cell-based; details: Homo sapiens;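 further: growth inhibition of NCI-H650 cells, read out by a viability assay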
Description: SANGER: Inhibition of human NCI-H650 cell growth in a cell viability assay.

HCC70 = test: cells; assay type: functional, cell-based; details: Homo sapiens;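 further: cell viability assay measuring how strongly the compound suppresses proliferation of HCC70 cells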
Description: SANGER: Inhibition of human HCC70 cell growth in a cell viability assay.

SW780 = test: cells; assay type: functional, cell-based; details: Homo sapiens;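 further: growth inhibition of the cells, read out with a cell viability assay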
Description: SANGER: Inhibition of human SW780 cell growth in a cell viability assay.

BHY = test: cells; assay type: functional, cell-based; details: Homo sapiens;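 further: cell growth inhibition read out by a viability assay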
Description: SANGER: Inhibition of human BHY cell growth in a cell viability assay.

NCI-H441 = test: cells; assay type: functional, cell-based; details: Homo sapiens;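 further: growth inhibition of NCI-H441 cells, read out with a cell viability assay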
Description: SANGER: Inhibition of human NCI-H441 cell growth in a cell viability assay.

NCI-H2141 = test: cells; assay type: functional, cell-based, Homo sapiens; details: Homo sapiens, NCI-H2141;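 further: growth inhibition of human NCI-H2141 cells, read out with a cell viability assay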
Description: SANGER: Inhibition of human NCI-H2141 cell growth in a cell viability assay.

HCC 2998 = test: cells; assay type: functional, cell-based; details: Homo sapiens;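 further: growth inhibition of human HCC2998 cells, measured with a cell viability read-out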
Description: SANGER: Inhibition of human HCC2998 cell growth in a cell viability assay.

CaR-1 = test: cells; assay type: functional, cell-based; details: Homo sapiens;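 further: growth inhibition of human CaR-1 cancer cells, read out with a cell viability assay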
Description: SANGER: Inhibition of human CaR-1 cell growth in a cell viability assay.

RPMI-7951 = test: cells; assay type: functional, cell-based; details: Homo sapiens
Description: SANGER: Inhibition of human RPMI-7951 cell growth in a cell viability assay.

SF-295 = test: cells; assay type: functional, cell-based; details: Homo sapiens;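 further: growth inhibition of SF-295 cells, read out with a cell viability assay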
Description: SANGER: Inhibition of human SF295 cell growth in a cell viability assay.

DMS-79 = test: cells; assay type: functional, cell-based, Homo sapiens; details: Homo sapiens, DMS-79
Description: SANGER: Inhibition of human DMS-79 cell growth in a cell viability assay.

MFE-280 = test: cells; assay type: functional, cell-based; details: Homo sapiens;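 further: growth inhibition of MFE-280 cells, determined with a cell viability readout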
Description: SANGER: Inhibition of human MFE-280 cell growth in a cell viability assay.

CP66-MEL = test: cells; assay type: functional, cell-based; details: Homo sapiens;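 further: growth inhibition of CP66-MEL cells determined in a cell viability assay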
Description: SANGER: Inhibition of human CP66-MEL cell growth in a cell viability assay.

HuP-T3 = test: cells; assay type: functional, cell-based; details: Homo sapiens;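 further: HuP-T3 cell growth inhibition, read out with a cell viability assay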
Description: SANGER: Inhibition of human HuP-T3 cell growth in a cell viability assay.

HO-1-N-1 = test: cells; assay type: functional, cell-based; details: Homo sapiens;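 further: growth inhibition of human HO-1-N-1 cells, read out with a cell viability assay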
Description: SANGER: Inhibition of human HO-1-N-1 cell growth in a cell viability assay.

SW-620 = test: cells; assay type: functional, cell-based; details: Homo sapiens;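 further: growth inhibition of human SW-620 cells, measured by a cell viability assay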
Description: SANGER: Inhibition of human SW620 cell growth in a cell viability assay.

NCI-H520 = test: cells; assay type: functional, cell-based; details: Homo sapiens;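 further: growth inhibition of NCI-H520 cells, measured by a cell viability assay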
Description: SANGER: Inhibition of human NCI-H520 cell growth in a cell viability assay.

NCI-H2009 = test: cells; assay type: functional, cell-based; details: Homo sapiens;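 further: cell viability assay measuring inhibition of NCI-H2009 cell growth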
Description: SANGER: Inhibition of human NCI-H2009 cell growth in a cell viability assay.

HCC1569 = test: cells; assay type: functional, cell-based; details: Homo sapiens;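 further: growth inhibition of human HCC1569 cells, read out with a cell viability assay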
Description: SANGER: Inhibition of human HCC1569 cell growth in a cell viability assay.

LOUCY = test: cells; assay type: functional, cell-based, Homo sapiens; details: Homo sapiens, LOUCY;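 further: growth inhibition of human LOUCY cells, read out with a cell viability assay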
Description: SANGER: Inhibition of human LOUCY cell growth in a cell viability assay.

TYK-nu = test: cells; assay type: functional, cell-based; details: Homo sapiens;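 further: growth inhibition of human TYK-nu cells, read out by a cell viability assay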
Description: SANGER: Inhibition of human TYK-nu cell growth in a cell viability assay.

VM-CUB-1 = test: cells; assay type: functional, cell-based; details: Homo sapiens;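 further: cell viability assay measuring growth inhibition of the human VM-CUB-1 cell line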
Description: SANGER: Inhibition of human VM-CUB-1 cell growth in a cell viability assay.

SNU-16 = test: cells; assay type: functional, cell-based, Homo sapiens; details: Homo sapiens, SNU-16;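 further: growth inhibition of human SNU-16 cells, determined with a cell viability readout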
Description: SANGER: Inhibition of human NCI-SNU-16 cell growth in a cell viability assay.

UACC-812 = test: cells; assay type: functional, cell-based; details: Homo sapiens
Description: SANGER: Inhibition of human UACC-812 cell growth in a cell viability assay.

SW837 = test: cells; assay type: functional, cell-based; details: Homo sapiens;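 further: growth inhibition of SW837 cells, determined with a cell viability assay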
Description: SANGER: Inhibition of human SW837 cell growth in a cell viability assay.

NCI-H1436 = test: cells; assay type: functional, cell-based, Homo sapiens; details: Homo sapiens, NCI-H1436;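 further: growth suppression of human NCI-H1436 cells, determined with a cell viability readout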
Description: SANGER: Inhibition of human NCI-H1436 cell growth in a cell viability assay.

GP5d = test: cells; assay type: functional, cell-based; details: Homo sapiens;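 further: growth inhibition of human GP5d cells, read out with a cell viability assay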
Description: SANGER: Inhibition of human GP5d cell growth in a cell viability assay.

SUP-T1 = test: cells; assay type: functional, cell-based, Homo sapiens; details: Homo sapiens, SUP-T1;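 further: growth inhibition of human SUP-T1 cells, read out as cell viability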
Description: SANGER: Inhibition of human SUP-T1 cell growth in a cell viability assay.

Daoy = test: cells; assay type: functional, cell-based; details: Homo sapiens;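 further: daoy cell growth inhibition, read out as cell viability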
Description: SANGER: Inhibition of human Daoy cell growth in a cell viability assay.

A-375 = test: cells; assay type: functional, cell-based; details: Homo sapiens;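 further: growth inhibition of A375 cells, read out with a cell viability assay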
Description: SANGER: Inhibition of human A375 cell growth in a cell viability assay.

647-V = test: cells; assay type: functional, cell-based; details: Homo sapiens;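 further: growth inhibition of 647-V cells, read out with a cell viability assay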
Description: SANGER: Inhibition of human 647-V cell growth in a cell viability assay.

NCI-H187 = test: cells; assay type: functional, cell-based, Homo sapiens; details: Homo sapiens, NCI-H187;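 further: growth inhibition of NCI-H187 cells, read out as cell viability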
Description: SANGER: Inhibition of human NCI-H187 cell growth in a cell viability assay.

NCI-H719 = test: cells; assay type: functional, cell-based, Homo sapiens; details: Homo sapiens, NCI-H719;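 further: growth inhibition of the cultured cell line, read out with a viability assay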
Description: SANGER: Inhibition of human NCI-H719 cell growth in a cell viability assay.

HOP-92 = test: cells; assay type: functional, cell-based; details: Homo sapiens;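 further: cell viability readout, with IC50 reflecting inhibition of HOP-92 cell growth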
Description: SANGER: Inhibition of human HOP-92 cell growth in a cell viability assay.

J82 = test: cells; assay type: functional, cell-based; details: Homo sapiens;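 further: growth inhibition of J82 cells, read out with a cell viability assay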
Description: SANGER: Inhibition of human J82 cell growth in a cell viability assay.

NCI-H292 = test: cells; assay type: functional, cell-based; details: Homo sapiens;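 further: growth inhibition of NCI-H292 cells, read out with a cell viability assay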
Description: SANGER: Inhibition of human NCI-H292 cell growth in a cell viability assay.

SAS = test: cells; assay type: functional, cell-based; details: Homo sapiens
Description: SANGER: Inhibition of human SAS cell growth in a cell viability assay.

IM-9 = test: SANGER: Inhibition of human IM-9 cell growth in a cell viability assay.; assay type: functional, cell-based; details: Homo sapiens, IM-9
T47D = test: cells; assay type: functional, cell-based; details: Homo sapiens
Description: SANGER: Inhibition of human T47D cell growth in a cell viability assay.

OPM-2 = test: cells; assay type: functional, cell-based, Homo sapiens; details: Homo sapiens, OPM-2
Description: SANGER: Inhibition of human OPM-2 cell growth in a cell viability assay.

With CCCCCCCCCCCC1=C(O)C(=O)C=C(O)C1=O [EMBELIN] the IC50 (HuTu80) was 2.35 µM, the IC50 (LK-2) was 18 µM and the IC50 (CAL-51) was 5.37 µM. For the same compound, the IC50 (OVCAR-5) was > 32 µM, the IC50 (PANC-08-13) was > 32 µM and the IC50 (DU-145) was 8.76 µM. For the same compound, the IC50 (VMRC-RCZ) was 9.47 µM, the IC50 (KYSE-520 cell line) was 18.5 µM and the IC50 (RCM-1) was 22.4 µM. For the same compound, the IC50 (OE33) was 13.3 µM, the IC50 (MKN-28) was 10 µM and the IC50 (IST-SL2) was > 32 µM. For the same compound, the IC50 (C32) was 2.83 µM, the IC50 (CPC-N) was > 32 µM and the IC50 (CAL-72) was 10.4 µM. The IC50 (L-540) was 8.42 µM, the IC50 (CAL-54) was 20.4 µM and the IC50 (NCI-H650) was 16.4 µM. For the same compound, the IC50 (HCC70) was > 32 µM, the IC50 (SW780) was > 32 µM and the IC50 (BHY) was 6.03 µM. For the same compound, the IC50 (NCI-H441) was 6.01 µM, the IC50 (NCI-H2141) was 26.8 µM and the IC50 (HCC 2998) was 6.8 µM. The IC50 (CaR-1) was > 32 µM, the IC50 (RPMI-7951) was 25.6 µM and the IC50 (SF-295) was 1.75 µM. The IC50 (DMS-79) was > 32 µM, the IC50 (MFE-280) was 15.7 µM and the IC50 (CP66-MEL) was 4.51 µM. The IC50 (HuP-T3) was > 32 µM, the IC50 (HO-1-N-1) was 12.3 µM and the IC50 (SW-620) was 28.8 µM. For the same compound, the IC50 (NCI-H520) was 13.2 µM, the IC50 (NCI-H2009) was 11.9 µM and the IC50 (HCC1569) was 10.3 µM. It also gave an IC50 (LOUCY) of 5.1 µM, an IC50 (TYK-nu) of 22.6 µM and an IC50 (VM-CUB-1) of 10.8 µM. For the same compound, the IC50 (SNU-16) was > 32 µM, the IC50 (UACC-812) was > 32 µM and the IC50 (SW837) was 18 µM. The IC50 (NCI-H1436) was > 32 µM, the IC50 (GP5d) was 8.6 µM and the IC50 (SUP-T1) was 7.32 µM. It also gave an IC50 (Daoy) of 5.46 µM, an IC50 (A-375) of 3.57 µM and an IC50 (647-V) of 24.5 µM. For the same compound, the IC50 (NCI-H187) was > 32 µM, the IC50 (NCI-H719) was > 32 µM and the IC50 (HOP-92) was 7.88 µM. It also gave an IC50 (J82) of 11.8 µM, an IC50 (NCI-H292) of 29.4 µM and an IC50 (SAS) of 16.8 µM. The IC50 (IM-9) was > 32 µM, the IC50 (T47D) was > 32 µM and the IC50 (OPM-2) was > 32 µM.

In the case of COc1ccc(-c2cc3nccn3c(Nc3ncccc3C(N)=O)n2)cc1OC, the IC50 (HuTu80) is reported as 1.81 µM, the IC50 (LK-2) is reported as > 8 µM and the IC50 (CAL-51) is reported as 3.02 µM. The IC50 (OVCAR-5) was 7.41 µM, the IC50 (PANC-08-13) was > 8 µM and the IC50 (DU-145) was 7.97 µM. For the same compound, the IC50 (VMRC-RCZ) was 5.58 µM, the IC50 (KYSE-520 cell line) was > 8 µM and the IC50 (RCM-1) was > 8 µM. For the same compound, the IC50 (OE33) was > 8 µM, the IC50 (MKN-28) was 4.49 µM and the IC50 (IST-SL2) was 1.07 µM. The IC50 (C32) was > 8 µM, the IC50 (CPC-N) was > 8 µM and the IC50 (CAL-72) was > 8 µM. The IC50 (L-540) was > 8 µM, the IC50 (CAL-54) was > 8 µM and the IC50 (NCI-H650) was > 8 µM. For the same compound, the IC50 (HCC70) was 1.93 µM, the IC50 (SW780) was > 8 µM and the IC50 (BHY) was 2.81 µM. For the same compound, the IC50 (NCI-H441) was 5.65 µM, the IC50 (NCI-H2141) was > 8 µM and the IC50 (HCC 2998) was 5.55 µM. The IC50 (CaR-1) was > 8 µM, the IC50 (RPMI-7951) was 3.48 µM and the IC50 (SF-295) was > 8 µM. For the same compound, the IC50 (DMS-79) was > 8 µM, the IC50 (MFE-280) was > 8 µM and the IC50 (CP66-MEL) was > 8 µM. The IC50 (HuP-T3) was > 8 µM, the IC50 (HO-1-N-1) was > 8 µM and the IC50 (SW-620) was 3.31 µM. The IC50 (NCI-H520) was > 8 µM, the IC50 (NCI-H2009) was > 8 µM and the IC50 (HCC1569) was > 8 µM. The IC50 (LOUCY) was 3.65 µM, the IC50 (TYK-nu) was > 8 µM and the IC50 (VM-CUB-1) was > 8 µM. The IC50 (SNU-16) was > 8 µM, the IC50 (UACC-812) was > 8 µM and the IC50 (SW837) was 3.54 µM. The IC50 (NCI-H1436) was > 8 µM, the IC50 (GP5d) was > 8 µM and the IC50 (SUP-T1) was 2.1 µM. For the same compound, the IC50 (Daoy) was > 8 µM, the IC50 (A-375) was 1.27 µM and the IC50 (647-V) was 7.3 µM. For the same compound, the IC50 (NCI-H187) was > 8 µM, the IC50 (NCI-H719) was > 8 µM and the IC50 (HOP-92) was > 8 µM. For the same compound, the IC50 (J82) was 1.51 µM, the IC50 (NCI-H292) was > 8 µM and the IC50 (SAS) was > 8 µM. For the same compound, the IC50 (IM-9) was > 8 µM, the IC50 (T47D) was > 8 µM and the IC50 (OPM-2) was 6.16 µM.
